One molecule from article PMC10563463 (Cell Transplantation, 2023) can be followed below.

This assay deals with recombinant human SUV39H1 (rhSUV39H1) (Homo sapiens, UniProt O43463). In words: biochemical.
Chain of recombinant human SUV39H1 (rhSUV39H1) (O43463 whole entry): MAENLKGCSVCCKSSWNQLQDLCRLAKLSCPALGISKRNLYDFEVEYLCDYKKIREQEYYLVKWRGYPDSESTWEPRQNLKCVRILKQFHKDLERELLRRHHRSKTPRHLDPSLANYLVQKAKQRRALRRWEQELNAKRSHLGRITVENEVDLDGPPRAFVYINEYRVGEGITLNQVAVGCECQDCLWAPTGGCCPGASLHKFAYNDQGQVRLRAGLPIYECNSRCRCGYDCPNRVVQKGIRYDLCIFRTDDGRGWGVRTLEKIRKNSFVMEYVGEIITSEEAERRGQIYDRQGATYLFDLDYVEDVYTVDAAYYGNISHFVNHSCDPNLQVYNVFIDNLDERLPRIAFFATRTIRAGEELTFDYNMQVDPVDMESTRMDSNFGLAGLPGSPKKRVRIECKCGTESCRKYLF

In the case of `CC(C)(O)[C@@H]1CC[C@](C)([C@H]2[C@@H](O)C[C@@]3(C)[C@@H]4C[C@H](O[C@@H]5O[C@H](CO)[C@@H](O)[C@H](O)[C@H]5O)[C@H]5C(C)(C)[C@@H](O[C@@H]6OC[C@@H](O)[C@H](O)[C@H]6O)CC[C@@]56C[C@@]46CC[C@]23C)O1` [Astragaloside IV], the Kd amounted to 21.4 µM.
